From patent publication USRE43802E1, “α- and β-amino acid hydroxyethylamino sulfonamides useful as retroviral protease inhibitors” (G.D. Searle LLC, priority 1992, dated 2012) come the findings set out here.

One data set deals with T1, HIV protease (Human immunodeficiency virus type 1 group M subtype B, UniProt P04585).
T1 construct: HIV protease is diluted in the assay buffer to a final enzyme concentration of 12.3 nanomolar, based on a molecular weight of 10,780
As to the kind of experiment: HIV protease enzyme assay (fluorescence, substrate 2-Ile-Nle-Phe(p-NO2)-Gln-ArgNH2). It is filed as biochemical. The following applies: Table 21, HIV protease enzyme assay. The procedure:
The enzyme method is described below. […] The positive control is MVT-101 (Miller, M. et al, Science, 246, 1149 (1989)] The assay conditions are as follows:
Assay buffer: 20 mM sodium phosphate, pH 6.4 20% glycerol 1 mM EDTA 1 mM DTT 0.1% CHAPS
The above described substrate is dissolved in DMSO, then diluted 10 fold in assay buffer. Final substrate concentration in the assay is 80 μM.
The final concentration of DMSO is 14% and the final concentration of glycerol is 18%. The test compound is dissolved in DMSO and diluted in DMSO to 10× the test concentration; 10 μl of the enzyme preparation is added, the materials mixed and then the mixture is incubated at ambient temperature for 15 minutes. The enzyme reaction is initiated by the addition of 40 μl of substrate. The increase in fluorescence is monitored at 4 time points (0, 8, 16 and 24 minutes) at ambient temperature. Each assay is carried out in duplicate wells.

For a further data set, the system named is HIV-1. As to the kind of experiment: microbe, parasite or virus in culture. The settings on record: Human immunodeficiency virus 1, CCRF-CEM, 168 h.
For a further data set, the system named is CEM cells. As to the kind of experiment: Intrinsic toxicity of test compound in uninfected CEM cells (MTT). In kind it is cell-based. The settings on record: Table 21. An excerpt:
Methods, 20, 309-321 (1988).

The structures appear in SMILES notation. Where two headings read alike, the source gives them in different places.

Method for HIV-1: Assays were performed in 96-well tissue culture plates. CEM cells, a CD4^+ cell line, were grown in RPMI-1640 medium (Gibco) supplemented with a 10% fetal calf serum and were then treated with polybrene (2 μg/ml). An 80 μl volume of medium containing 1×10^4 cells was dispensed into each well of the tissue culture plate. To each well was added a 100 μl volume of test compound dissolved in tissue culture medium (or medium without test compound as a control) to achieve the desired final concentration and the cells were incubated at 37° C. for 1 hour. […] Likewise, the intrinsic toxicity of the test compound was determined by adding medium without virus to several wells containing test compound. […]
Following the addition of virus, cells were incubated at 37° C. in a humidified, 5% CO2 atmosphere for 7 days. […] The absorbance at 590 nm was determined for each sample using a Molecular Devices microplate reader. Absorbance values for each set of wells is compared to assess viral control infection, uninfected control cell response as well as test compound by cytotoxicity and antiviral efficacy.

In general, melting point refers to the temperature, or range, at which the solid turns liquid. Consider `COc1ccc(S(=O)(=O)N(CC(C)C)C[C@@H](O)[C@H](Cc2ccccc2)NC(=O)O[C@H]2CCS(=O)(=O)C2)cc1`, for which the melting point worked out at 69 °C.

What is called IC50 is the concentration that inhibits the measured activity by half. Broadly, the EC50 is the concentration giving half of the maximal effect. The low end stands for greater potency, the high end for weaker potency. In turn, `CNC(=O)C[C@H](NC(=O)c1ccc2ccccc2n1)C(=O)N[C@@H](Cc1ccccc1)[C@H](O)CN(CCC(C)C)S(=O)(=O)c1ccccc1` [Entry 7] returned an IC50 on HIV protease (IC50 (nM)) of 3 nM. For the same compound, the EC50 in the data set with HIV-1 turned out to be 25 nM.

For the compound `COc1ccc(S(=O)(=O)N(CC(C)C)C[C@@H](O)[C@H](Cc2ccccc2)NC(=O)OCc2ccncc2)cc1` [Example 22], the IC50 on HIV protease (read-out: IC50) was 15 nM. Further, the “TD50 (nM)” value with CEM cells is on record as 31,000 nM.

As for `COc1ccc(S(=O)(=O)N(CC(C)C)C[C@@H](O)[C@H](Cc2ccccc2)NC(=O)OCc2ccc[n+]([O-])c2)cc1` [Example 25], the IC50 on HIV protease (read-out: IC50) was 60 nM. Also, in the data set on CEM cells, the “TD50 (nM)” value is reported as 167,000 nM.

Take `COc1ccc(S(=O)(=O)N(CC(C)C)C[C@@H](O)[C@H](Cc2ccccc2)NC(=O)OC(C)(C)C)cc1` [Example 27]: the IC50 at HIV protease (read-out: IC50) was determined as 5 nM. In addition, the “TD50 (nM)” value in the data set on CEM cells is recorded as 300,000 nM.

At HIV protease (IC50 (nM)), `COc1ccc(S(=O)(=O)N(CC(C)C)C[C@@H](O)[C@H](Cc2ccccc2)NC(=O)c2c(C)cccc2C)cc1` [Example 32] came in with an IC50 of 5 nM. For the same compound, the “TD50 (nM)” value with CEM cells was 17,000 nM.
